Measured values from patent US20170252306A1, “Pharmaceutical Compositions for Preventing and Treating Th1 or Th2 mediated Immune Disease Comprising 4H3MC(4-Hydroxy-3-methoxycinnamaldehyde) as an Active Ingredient” (GWANGJU INSTITUTE OF SCIENCE AND TECHNOLOGY, priority 2016, published 2017).

Columns and labels:
PKCθ = target: T1, PKCθ (Homo sapiens, UniProt Q04759); assay: PKCθ phosphorylation and accumulation at the immunological synapse (confocal imaging); format: cell-based; conditions: Jurkat T cells pretreated with 4H3MC 10 μM, conjugates with SEE-pulsed Raji B cells
T1 construct: endogenous in cells; host or cells: Jurkat T cells conjugated with SEE-pulsed Raji B cells
Experimental: Jurkat T cells were pretreated with 10 μM of 4H3MC for 1 hour, while Raji B cells were stained with 1 μM of CMFDA green tracker for 30 minutes. After washing twice with RPMI medium, Raji B cells were incubated with SEE (1 μg/ml) at 37° C. for 30 minutes. SEE-conjugated Raji B cells were incubated with 4H3MC-treated Jurkat T cells for 10 minutes to form an immunological synapse, and then placed on glass coverslips. The cells were fixed with 2% paraformaldehyde and washed with PBS. After washing, the cells were permeabilized with 0.1% TritonX-100 and incubated with primary antibodies (antibodies against CD3, LFA-1, t-PKCθ, p-PKCθ) overnight. On the next day, the cells were washed with PBS, and then incubated with secondary antibodies (cy3-conjugated goat anti-mouse IgG, Texas Red-conjugated goat anti-rabbit IgG antibodies) at room temperature for 1 hour. After washing, the cells were placed on a slide glass using Dako fluorescent mounting medium (Dako, Denmark), followed by drying. The dried slide samples were examined with an FV1000 confocal laser scanning microscope (Olympus), and CD3, LFA-1, t-PKCθ and p-PKCθ accumulation at the immunological synapse was observed and analyzed.

AP-1, NF-κB and NFAT = AP-1, NF-κB and NFAT luciferase activity assays; format: cell-based, human; conditions: transfected Jurkat T cells, 4H3MC 10 μM pretreatment 1 hour, PMA/A23187 16 hours
Experimental: Jurkat T cells (1.5×10^6) were transfected with 100 μl of Amaxa's Nucleofector solution (Amaxa, Germany) containing 3 μg of pGL3-AP-1, pGL3-NF-κB or pGL3-NFAT Luc plasmids, and then the cells were transferred to complete medium and cultured at 37° C. After 48 hours of transfection, the transfected cells were pretreated with 4H3MC (10 μM) for 1 hour, and then stimulated with PMA/A23187 for 16 hours. After […], the cells were harvested and lysed with a lysis buffer for luciferase assay (Promega, Madison, Wis.). Cellular debris was removed from lysed proteins by centrifugation at 16,000×g at 4° C. for 30 minutes. Luciferase activity was measured with a Centro LB 960 Luminometer (Berthold Technologies, Germany).

[1] = tested on: Jurkat T cells and human PBLs; assay: IL-2 mRNA expression in activated T cells (real-time PCR); format: cell-based
Experimental: (§1) Jurkat T cells (5×10^5) or human PBLs (1×10^6) were stimulated with anti-CD3 (OKT3, 10 μg/ml)/CD28 (2 μg/ml) or PMA (100 nM)/A23187 (1 μM). For anti-CD3/CD28 stimulation, cells were placed on a culture dish coated with anti-CD3 antibody, and were then treated with anti-CD28 (2 μg/ml) antibody. For superantigen stimulation, T cells were incubated with SEE (1 μg/ml)-pulsed Raji B cells. For pre- or post-treatment experiments, various concentrations of 4H3MC or HCA were added 30 minutes or 60 minutes before stimulation.
Total RNA was isolated from Jurkat T cells using TRIZOL reagent (JBI, Korea). Reverse transcription of the RNA was performed using RT Pre-Mix (Intron, Korea). The primers and PCR conditions were as follows: […]
The amplification profile was composed of denaturation at 94° C. for 30 seconds, annealing at 60° C. for 20 seconds, and extension at 72° C. for 40 seconds. 30 cycles were preceded by denaturation at […] for 7 minutes. In some experiments, the expression levels of IL-2 mRNA were evaluated by real-time RT-PCR. Total RNA was isolated and cDNA was synthesized as described above. PCR amplification was performed in Step One Real-time PCR system (Applied Biosystems, Foster city, CA) for continuous fluorescence detection system using SYBR (Takara, Japan). Each PCR reaction was performed under the following conditions: 94° C. for 30 sec, 60° C. for 30 sec and 72° C. for 30 sec, plate read (detection of fluorescent product) for cycles, followed by extension at 72° C. for 7 min. Melting curve analysis was done to characterize the double-stranded DNA product. The levels of IL-2 mRNA normalized for GAPDH were expressed as fold changes relative to that of untreated controls. All experiments were performed at least three times.

PKCθ, ERK and p38 kinase = assay: Western blot of phospho-PKCθ, ERK and p38 in activated Jurkat T cells; format: cell-based, human
Experimental: as §1
Jurkat T cells were lysed by cold lysis buffer (1% Triton X-100, 150 mM NaCl, 20 mM Tris, pH 7.5, protease inhibitor and phosphatase inhibitor) for 1 hour, and then centrifuged at 4° C. at 16,000×g for 30 minutes. About 100 μg of the extract lysate was separated through 10% SDS-PAGE. Proteins were transferred into a nitrocellulose membrane by means of Trans-Blot SD semidry transfer cell (Bio-Rad, Hercules, Calif.). The membrane was blocked in 5% skim milk for 1 hour, washed, and then incubated with the indicated antibodies in 3% skim milk overnight. Excess primary antibody was removed by washing the membrane with TBST, and then the membrane was incubated with peroxidase-conjugated secondary antibody for 2 hours. After washing with TBST, bands were visualized by Western blotting detection reagent and then exposed to x-ray film.

PKC = PKC activity measurement in Jurkat T cell lysate (ELISA-based kinase assay); format: biochemical, human; conditions: Jurkat T cell cytosol fraction, compound 0.01-50 μM, PMA 100 nM
Experimental: Jurkat T cells (1×10^6) were suspended in lysis buffer (1% Triton X-100, 150 mM NaCl, 20 mM Tris pH 7.5, protease inhibitor, phosphatase inhibitor), and then kept at 4° C. for 1 hour and centrifuged at 14,000×g for 30 minutes. Cell lysate was incubated with 4H3MC ([…]), HCA ([…]) or STSN (10 nM) at 4° C. for 30 minutes. PMA (100 nM) was added, and PKC activity was measured with a nonradioactive protein kinase assay based on ELISA. The assay was developed with tetramethylbenzidine substrate, and the color developed proportionally to PKC phosphotransferase activity. The intensity of the color was measured at 450 nm. The data were expressed as relative kinase activity.

Jurkat T cells = assay: Cell death assay (microscopy, 7-AAD/annexin V flow cytometry, Hoechst staining); format: cell-based, human; conditions: 16 hours
Experimental: Cell death of Jurkat T cells was examined using a double staining method with 7-AAD and annexin V-PE. Jurkat T cells (1×10^6) were indicated concentrations of 4H3MC for 16 hours, and then suspended in 200 μl of HBSS buffer comprising 7-AAD (1 μg/ml) and were incubated at 37° C. for 10 minutes. After 10 minutes, the cells were incubated with 200 μl of HBSS buffer comprising V-PE (20 μg/ml) and analyzed immediately on a BD FACS Canto™ II Flow Cytometer (BD Biosciences). All experiments were performed at least three times.
Jurkat T cells were treated with 10 μM of 4H3MC for 16 hours, and then pelleted onto a PLL-coated cover glass slide (18-mm diameter; Fisher Scientific, Pittsburgh, Pa.) using a cytospin centrifuge. The pelleted cells were fixed in 2% para-formaldehyde at room temperature for 10 minutes, and then washed three times with PBS. As control, cells were stained with TRITC-phalloidin for detecting actin. The slide was incubated for 2 minutes in PBS containing Hoechst dye (1:105) at room temperature, and then the cells were examined using an FV1000 confocal microscope.

[2] = tested on: atopic skin disease BALB/c mice; assay: DNCB/mite extract-induced atopic skin disease in mice; format: in vivo; conditions: 4H3MC 50 mg/kg orally every day for 4 weeks
Experimental: With reference to a previously reported publication, atopic skin disease was induced using DNCB and a mite extract. BALB/c mice were divided into four groups, and then the skin was peeled off by touching each earlobe five times with a surgical tape (Seo-il Chemistry, Hwa-sung, Korea). On day 0, 20 μl of DNCB (1%) was applied to each peeled earlobe, and on day 4, 20 μl of a mite extract (10 mg/mL) was applied. DNCB and the mite extract were alternately applied once a week for 4 weeks. From day 1, 4H3MC (50 mg/kg) was administered orally everyday for 4 weeks. Using a thickness meter (Kori Seiki MFG Co., Japan), the ear thickness was measured at 24 hours after application of DNCB or the mite extract. After 28 days, blood was sampled, and the serum portions were stored at […]. After blood sampling, the ear tissue was cut and used for histopathological analysis.

[3] = tested on: Jurkat T cells and human PBLs; assay: IL-2 secretion from activated T cells (ELISA); format: cell-based; conditions: for IC50: Jurkat T cells and human PBLs, PMA/A23187 stimulation, supernatants after 36 hours, ELISA, read-out: IC50 of inhibition of IL-2 secretion
Experimental: as §1
Jurkat T cells or human PBLs were stimulated in the same manner as described above with respect to T-cell stimulation and treatment with 4H3MC or HCA. At the indicated time points, the supernatants were collected, and the concentrations of IL-2 in the supernatants were measured using a Duo set Human IL-2 ELISA kit (R&D Systems).

[4] = Jurkat T cells pre-activated 30 minutes with anti-CD3/CD28 or PMA/A23187, then 4H3MC 10 μM
[5] = Jurkat T cells, 4H3MC 10 μM pretreatment 1 hour, anti-CD3/CD28 or PMA/A23187

T1 sequence (Q04759 whole entry): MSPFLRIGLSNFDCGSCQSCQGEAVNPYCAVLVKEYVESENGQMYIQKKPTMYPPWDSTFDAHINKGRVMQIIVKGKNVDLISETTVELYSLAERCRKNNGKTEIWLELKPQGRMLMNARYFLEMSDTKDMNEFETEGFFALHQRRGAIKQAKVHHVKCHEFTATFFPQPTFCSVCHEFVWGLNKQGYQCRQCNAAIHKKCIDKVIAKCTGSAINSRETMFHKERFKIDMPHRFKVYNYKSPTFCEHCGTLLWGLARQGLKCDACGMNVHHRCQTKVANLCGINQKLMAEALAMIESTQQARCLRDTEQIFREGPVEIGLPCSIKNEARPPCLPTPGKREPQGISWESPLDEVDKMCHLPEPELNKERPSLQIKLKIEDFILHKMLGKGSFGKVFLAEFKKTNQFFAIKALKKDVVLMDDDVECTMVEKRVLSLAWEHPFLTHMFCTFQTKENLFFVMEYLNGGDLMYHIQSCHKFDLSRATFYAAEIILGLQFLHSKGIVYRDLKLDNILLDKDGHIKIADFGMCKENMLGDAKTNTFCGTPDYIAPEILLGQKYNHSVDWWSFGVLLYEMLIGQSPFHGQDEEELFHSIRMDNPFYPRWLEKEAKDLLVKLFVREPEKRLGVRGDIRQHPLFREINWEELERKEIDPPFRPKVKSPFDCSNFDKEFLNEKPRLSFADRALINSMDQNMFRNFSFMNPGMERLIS

SMILES	phosphorylation and accumulation of PKCθ at the IS (PKCθ)	luciferase activities of NF-κB, AP-1 and NFAT (AP-1, NF-κB and NFAT)	IL-2 expression (mRNA) ([1]; Jurkat T cells and human PBLs pretreated 1 hour with 4H3MC 0-250 μM, then PMA/A23187 or anti-CD3/CD28 for 6 hours)	concentration at which dramatic inhibition of IL-2 expression was seen ([1]; Jurkat T cells and human PBLs, pretreatment 1 hour, PMA/A23187 or anti-CD3/CD28) [µM]	IL2 mRNA expression, post-treatment [1, 4]	time-dependent IL-2 mRNA expression ([1]; Jurkat T cells, 4H3MC 10 μM pretreatment 1 hour, anti-CD3/CD28 or PMA/A23187 for various times)	phosphorylated forms of PKCθ, ERK and p38, post-treatment (PKCθ, ERK and p38 kinase; [4])	phosphorylation of ERK and p38 (PKCθ, ERK and p38 kinase; [5])	phosphorylation of PKCθ (PKCθ, ERK and p38 kinase; [5])	PKC activity (PKC)	apoptosis or necrosis (Jurkat T cells; 10-100 μM)	apoptosis or necrosis by Hoechst staining (Jurkat T cells; effective concentration (10 μM))	necrosis (Jurkat T cells; high concentrations (250 μM))	ear symptoms (flushed and swollen) 28 days after induction [2]	ear thickness [2]	IC50 [3] [µM]	fold effectiveness versus HCA in inhibition of IL-2 in T cells ([3]; comparison of IC50 values of 4H3MC and HCA) [fold]	time-dependent IL-2 secretion ([3]; human PBLs, 4H3MC 10 μM pretreatment 1 hour, PMA/A23187)
COc1cc(C=CC=O)ccc1O [4H3MC, 4-Hydroxy-3-methoxycinnamaldehyde]	significantly reduced the phosphorylation as well as accumulation of PKCθ at the IS	considerably reduced PMA/A23187-induced luciferase activities of NF-κB, AP-1 and NFAT	significantly inhibited IL-2 expression in a concentration-dependent manner	2 to 10	effectively reduced the expression of IL2 mRNA in pre-activated Jurkat T cells	inhibited IL-2 mRNA expression at the early time point (about 3 hours) after stimulation which lasted over 6 hours	significantly reduced	dramatically reduced anti-CD3/CD28- and PMA/A23187-induced phosphorylation of ERK and p38	significantly blocked phosphorylation of PKCθ	significantly inhibited PKC-specific activity with the lower effective concentration than HCA	did not induce apoptosis or necrosis	does not induce apoptosis or necrosis at its effective concentration	induced necrosis in some Jurkat T cells	such symptoms were alleviated	became significantly thinner from 8 days	~2.5	~5	significantly reduced
O=C(O)C=Cc1ccc(O)cc1 [HCA, p-hydroxycinnamic acid, reference compound]	–	–	–	–	–	–	–	–	–	inhibit PKC activity in vitro	–	–	–	–	–	15 to 18	–	–
